According to patent publication US20060025430A1, “Novel irreversible inhibitors of epidermal growth factor receptor tyrosine kinase and uses thereof for therapy and diagnosis” (priority 2003, published 2006):

Columns and labels:
HER1-HER2 chimera = molecular target: T1, HER1-HER2 chimera (Homo sapiens, UniProt P04626); assay: Selective-inhibition assay in CSH12 cells (receptor phosphotyrosine, Western blot); format: cell-based; conditions: CSH12 cells expressing HER1-HER2 chimera, 1 hour incubation, EGF stimulation
T1 construct: HER2 cytoplasmic domain generates normal mitogenic and transforming signals in a chimeric receptor; expressed in transfected cells; host or cells: NIH3T3 (CSH12 cells); the other entry of the earlier key: EGFR (P00533, Epidermal growth factor receptor)
Source text: Identical protein amounts from each lysate sample were loaded onto polyacrylamide gel (6% or 10%), separated by electrophoresis (Hoefer Pharmacia Biotech Inc., San Francisco, USA) and transferred to nitrocellulose membrane (power supply: EPS 500/400, Amersham Pharmacia Biotech; nitrocellulose extra blotting membranes: Sartorius AG, Goettingen, Germany). A standard high molecular weight solution was loaded as a reference. For visualization of molecular weight bands, the membrane was immersed in Ponceau reagent (0.05% Ponceau, 5% acetic acid) for a few minutes, and then washed twice with TTN (10 mM Tris pH 7.4, 0.2% TWEEN 20, 170 mM NaCl) and once with water. The membrane was blocked overnight in TTN containing 5% milk (1% fat) (blocking TTN) and incubated for 90 minutes with PY20 antiphosphotyrosine antibody (Santa Cruz Biotechnology Inc., Santa Cruz, USA) diluted 1:2,000 in blocking TTN. The membrane was then washed with TTN (3×5 minutes), incubated for 90 minutes with a horseradish peroxidase-conjugated secondary antibody (Goat anti-mouse IgG H+L, Jackson ImResearch Laboratories, Inc., diluted 1:10,000 in blocking TTN), and finally washed again with TTN (3×5 minutes).

[1] = Challenge reaction with reduced glutathione (HPLC conversion to conjugates); format: physicochemical
Description: Standard solutions were prepared by dissolving compound 5, Compound 6 and {4-[(3,4-dichloro-6-fluorophenyl)amino]quinazol ine-6-yl}acrylamide (0.0146 mmol) in 1.75 ml of THF: MeOH (1:2) and glutathione (18 mg, 0.0586 mmol) in 0.5 ml of water. A 300 μL aliquot of the quinazoline standard solution (2.5 μmol) was diluted with 689 μL of THF:MeOH:H2O (1:2:1), after which 11 μL (1.25 μmol) of glutathione solution and 5.22 μL (30 μmol) of N,N′-diisopropylethylamine were added. Conversions of the quinazolines and formation of conjugates at different time points were measured by HPLC using RP (3.9×300 mm) column (mobile phase of acetonirile and acetate buffer 0.1 M (2:3) at a flow rate of 1 ml/min was used herein). The glutathione conjugates were further detected by MS.
As discussed hereinabove, EGFR blockade by irreversible inhibitors is due to the nucleophilic attack of the sulfhydryl group of Cys-773 at the receptor's ATP binding pocket on the reactive chemical group of the EGFR targeted inhibitor. In order to evaluate the chemical reactivity of the novel irreversibly EGFR inhibitors decribed herein, the degree of reactivity of the inhibitors towards the sulfhydryl group of reduced glutathione (GSH) as a nucleophile was tested. Thus, Compound 5, Compound 6 and {4-[(3,4-dichloro-6-fluorophenyl)amino]quinazoline-6-yl}acrylamide were dissolved in THF: MeOH: H2O (1:2:1), and were reacted at room temperature with half an equivalent of reduced glutathione in the presence of 12 equivalents of N,N-diisopropylethylamine. Identical aliquots of the reaction mixtures were taken at various time points and injected into reversed-phase HPLC in order to determine the conversion-rate of the various compounds into glutathione-conjugates. The characteristics of the products were determined using MS.
A study of the reaction rate as a function of the temperature was also performed. Thus, the reaction ws performed at various temperatures ranging from 0° C. and 60° C. The following activation parameters were generated: For {4-[(3,4-dichloro-6-fluorophenyl)amino]quinazoline-6-yl}acrylamide: Ea=5.24 kCalmol^−1, ΔH^#25° C.=4.64 kCalmol^−1 and ΔS^#25° C.=−61.24 Calmol^−1K^−1. For compound 5: Ea=11.4 kCalmol^−1, ΔH^#25° C.=10.80 kCalmol^−1 and ΔS^#25° C.=−41.29 Calmol^−1K^−1.
The reaction rate was calculated using the following rate equation: [formula] kobs=Ae^−Ea/RT

T1 sequence (P04626 with tags, fused parts or gaps): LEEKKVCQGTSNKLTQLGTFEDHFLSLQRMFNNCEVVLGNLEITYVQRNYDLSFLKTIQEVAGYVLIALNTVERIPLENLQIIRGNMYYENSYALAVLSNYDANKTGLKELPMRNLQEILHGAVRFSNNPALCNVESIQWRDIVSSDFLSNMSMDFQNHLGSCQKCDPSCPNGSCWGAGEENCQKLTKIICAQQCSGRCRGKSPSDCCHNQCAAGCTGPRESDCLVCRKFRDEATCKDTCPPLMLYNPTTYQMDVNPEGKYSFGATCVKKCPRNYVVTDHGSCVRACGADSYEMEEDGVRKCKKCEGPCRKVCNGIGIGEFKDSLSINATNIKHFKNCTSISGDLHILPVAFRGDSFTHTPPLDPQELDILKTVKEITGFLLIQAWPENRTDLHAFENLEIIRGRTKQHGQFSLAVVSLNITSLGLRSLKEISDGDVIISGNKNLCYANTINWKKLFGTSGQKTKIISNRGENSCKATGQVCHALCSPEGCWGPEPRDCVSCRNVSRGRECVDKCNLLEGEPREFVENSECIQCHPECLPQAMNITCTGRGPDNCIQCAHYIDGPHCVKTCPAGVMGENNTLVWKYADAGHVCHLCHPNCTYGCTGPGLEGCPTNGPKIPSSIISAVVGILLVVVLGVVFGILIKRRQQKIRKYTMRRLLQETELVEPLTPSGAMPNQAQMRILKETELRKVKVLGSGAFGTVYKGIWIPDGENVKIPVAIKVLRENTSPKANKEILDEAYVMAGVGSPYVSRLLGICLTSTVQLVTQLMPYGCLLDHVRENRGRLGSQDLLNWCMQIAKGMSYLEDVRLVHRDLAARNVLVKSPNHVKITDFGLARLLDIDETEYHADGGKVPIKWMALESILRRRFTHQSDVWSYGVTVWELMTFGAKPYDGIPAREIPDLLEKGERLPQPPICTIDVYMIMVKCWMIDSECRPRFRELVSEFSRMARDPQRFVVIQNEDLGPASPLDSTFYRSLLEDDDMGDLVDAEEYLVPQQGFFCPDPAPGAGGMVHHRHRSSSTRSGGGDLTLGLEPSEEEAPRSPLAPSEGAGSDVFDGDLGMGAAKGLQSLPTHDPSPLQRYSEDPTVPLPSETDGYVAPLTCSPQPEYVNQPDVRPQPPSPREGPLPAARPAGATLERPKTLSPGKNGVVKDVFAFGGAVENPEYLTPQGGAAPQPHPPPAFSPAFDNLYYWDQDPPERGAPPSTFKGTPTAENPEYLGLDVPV

IC50 (HER1-HER2 chimera): 25 to 50 nM
ΔH^# 25° C. of reaction with reduced glutathione ([1]; 25° C.): 10.80 kCalmol^−1
ΔS^# 25° C. of reaction with reduced glutathione ([1]; 25° C.): −41.29 Calmol^−1K^−1
activation energy Ea of reaction with reduced glutathione ([1]; temperatures from 0° C. to 60° C.): 11.4 kCalmol^−1
SMILES: O=C(CCl)Nc1ccc2ncnc(Nc3cc(Cl)c(Cl)cc3F)c2c1 [Compound 5, N-{4-[(4,5-Dichloro-2-fluoro-phenyl)amino]-quinazolin-6-yl}-2-chloroacetamide]
